Laboratory results as given in patent US10266529B2, “Salts, co-crystals, and polymorphs of an anxiolytic compound” (Bionomics Limited, priority 2013, dated 2019).
In brackets after ≈: the same amount, converted by molar mass.

Key:
Type in all cases: physicochemical
[1] = Suspension equilibration experiments (thermodynamically stable polymorphic form); conditions: at least in the temperature range from 25° C. to 60° C.
Protocol: Suspension equilibration experiments in a variety of different solvents and solvent mixtures were carried out at various temperatures.
In addition, the use of high temperatures can help overcome kinetic barriers to polymorphic interconversion.
The experiments at 5° C. were carried out to search for solvated (and additional hydrated) forms of compound 1 since experiments at low temperatures are conducive to solvate and hydrate formation.
The amorphous material was used as the starting material for several suspension equilibration experiments (temperature=5° C., 30° C., 75° C., or 90° C.; duration=1 d, 5 d, or 7 d; solvent=THF, 96:4 acetone/H2O, 98.5/1.5 acetone/H2O, 2-PrOH, or water). Since the amorphous form is in a higher energy state than the crystalline form of the starting material compound 1, potential kinetic barriers might not poses as much of a hindrance for a transformation. The amorphous form of compound 1 was used as starting material for experiments to determine the stability range of compound 1 by equilibration at various water activity levels.
Upon completion of the suspension equilibration experiments, the recovered products were examined by Raman spectroscopy both immediately after filtration and after 30 min of drying under vacuum at room temperature. […]

[2] = Aqueous solubility determination (2 h equilibration in doubly distilled water, HPLC)
Protocol: Approximately 0.3 mL of doubly distilled water was added to 3-10 mg of the substance to be measured. The resulting suspension/solution was equilibrated in a temperature-controlled Eppendorf Thermomixer Comfort shaker for 2 h at 25° C. at a shaking rate of 500 rpm. The solid phase was recovered by filter centrifugation (0.10-μm PVDF membrane) and examined by FT-Raman spectroscopy. The pH of the corresponding solution was determined with a Metrohm 713 pH meter. The concentration of the solution was determined by HPLC (see below).
Standard solutions of the SP196-FD-P1 free drug of compound 1 and the L-malate salt of compound 1 (SP196-MLA-P4) were prepared in the concentration range of 0.2-0.05 mg/mL for the construction of a calibration curve.

[3] = DVS (dynamic vapor sorption) isotherm / hygroscopicity
Protocol: Projekt Messtechnik Sorptions Prüfsystem SPS 11-100n or Surface Measurement Systems DVS-1. The sample was placed on an aluminum or platinum holder on top of a microbalance and allowed to equilibrate for 2 h at 50% r.h. before starting one of two pre-defined humidity programs: • (1) 2 h at 50% r.h.; • (2) 50→0% r.h. […] (5%/h); 5 h at 0% r.h.; and • (4) 0→50% r.h. (5%/h); 2 h at 50% r.h.

[4] = Stability of amorphous material under ambient conditions (re-examination by XRPD)
Source text: The amorphous material appears to be stable for at least 5 days under ambient conditions, as it was unchanged after re-examination by XRPD (data not shown).

Structure (SMILES) | thermodynamic stability of the polymorph [1] | FT-Raman spectrum of the solid residue after aqueous solubility determination ([2]; after 2 h equilibration at 25° C. in water) | solubility at 2 h ([2]; doubly distilled water, 25 °C, pH 7.5, water, thermodynamic from solid, after 2 h equilibration at 25° C., pH=7.5 of saturated solution) | DVS final mass above the starting mass ([3]; after return from 95% r.h. to 50% r.h.) | hygroscopicity classification ([3]; based on mass gain at 85% r.h.) | DVS reversible mass loss ([3]; decreasing relative humidity from 50% r.h. to 0%) | DVS mass increase ([3]; from 50% to 85% r.h.) | DVS (total) mass increase ([3]; increasing relative humidity from 50% r.h. to 95% r.h.) | FT-Raman spectrum of the material after the DVS measurement ([3]; solid form after DVS cycle) | stability of the amorphous material (unchanged by XRPD) [4]
CCn1cc(C(=O)N2CCOCC2)c(=O)c2cc(NC3Cc4ccccc4C3)cnc21 [Form D, 1-ethyl-6-(indan-2-ylamino)-3-(morpholine-4-carbonyl)-1,8-naphthyridin-4-one] | thermodynamically less stable than Form C |  |  |  |  |  |  |  |  | 
CCn1cc(C(=O)N2CCOCC2)c(=O)c2cc(NC3Cc4ccccc4C3)cnc21 [Form C, 1-ethyl-6-(indan-2-ylamino)-3-(morpholine-4-carbonyl)-1,8-naphthyridin-4-one] | thermodynamically stable polymorph | unchanged | ~40 µg/mL (≈ 95.6 µM) | equal to the starting mass | slightly hygroscopic (slightly hygroscopic (mass increase<2% and ≥0.2%)) | ~0.3 wt % | ~0.2 wt % | ~0.6 wt % | corresponds to the spectrum of the material before the DVS measurement | 
CCn1cc(C(=O)N2CCOCC2)c(=O)c2cc(NC3Cc4ccccc4C3)cnc21 [Form A, 1-ethyl-6-(indan-2-ylamino)-3-(morpholine-4-carbonyl)-1,8-naphthyridin-4-one] |  |  |  |  |  |  |  |  |  | at least 5 days
